Test results from US9180129B2, “Combination of lapatinib and trametinib” (NOVARTIS AG, priority 2010, dated 2015).
Where two headings read alike, the source gives them in different places.

Legend:
A375 S2 = test: Cell growth inhibition assay, A375 S2 (melanoma); format: cell-based; conditions: Homo sapiens, A375-S2, 72 h, 3 days, read-out: Single agent IC50 (μM), mean ± STD
Description: (§1) All lines were kept in a humidified incubator at 37° C. in 95% air and 5% CO2. JIMT-1 is a cell line established from a tumor of a patient with trastuzumab-resistant breast cancer (Tanner et al, Mol Cancer Ther 2004; 3:1585-92).
(§2) All cells were cultured for a minimum of 72 hours prior to cell plating. Cells were seeded in a 96-well tissue culture plate (NUNC 136102) of RPMI media containing 10% FBS for all cell lines at 2,000 cells per well except KPL4, which was plated in DMEM containing 5% FBS at 500 cells per well. […] Cells were incubated in the presence of compounds for 3 days. ATP levels were determined by adding Cell Titer Glo® reagent (Promega) according to the manufacturer's protocol. Briefly, Cell Titer Glo® reagent was added to each plate, incubated for 20 minutes then the luminescent signal was read on the SpectraMax L plate reader with a 0.5 sec integration time.
(§3) Inhibition of cell growth was estimated after treatment with compound or a combination of compounds for three days and comparing the signal to cells treated with vehicle (DMSO). Cell growth was calculated relative to vehicle (DMSO) treated control wells. […]

SW403 = test: Cell growth inhibition assay, SW403 (colorectal); format: cell-based; conditions: Homo sapiens, SW-403, 72 h, 3 days, read-out: Single agent IC50 (μM), mean ± STD
Description: as §1, §2, §3

MDAMB175VII = test: Cell growth inhibition assay, MDAMB175VII (breast HER2−); format: cell-based; conditions: Homo sapiens, MDA-MB-175-VII, 72 h, 3 days, read-out: Single agent IC50 (μM), mean ± STD
Description: as §1, §2, §3

SUM149 = test: Cell growth inhibition assay, SUM149 (breast HER2−); format: cell-based; conditions: Homo sapiens, SUM149, 72 h, 3 days, read-out: Single agent IC50 (μM), mean ± STD
Description: as §1, §2, §3

SW780 = test: Cell growth inhibition assay, SW780 (bladder); format: cell-based; conditions: Homo sapiens, 72 h, 3 days, read-out: Single agent IC50 (μM), mean ± STD
Description: as §1, §2, §3

SUIT2 = test: Cell growth inhibition assay, SUIT2 (pancreatic); format: cell-based; conditions: Homo sapiens, SUIT-2, 72 h, 3 days, read-out: Single agent IC50 (μM), mean ± STD
Description: as §1, §2, §3

Capan-1 = test: Cell growth inhibition assay, Capan-1 (pancreatic); format: cell-based; conditions: Homo sapiens, 72 h, 3 days, read-out: Single agent IC50 (μM), mean ± STD
Description: as §1, §2, §3

HCC1954 = test: Cell growth inhibition assay, HCC1954 (breast HER2+); format: cell-based; conditions: Homo sapiens, 72 h, 3 days, read-out: Single agent IC50 (μM), mean ± STD
Description: as §1, §2, §3

BFTC-905 = test: Cell growth inhibition assay, BFTC-905 (bladder); format: cell-based; conditions: Homo sapiens, 72 h, 3 days, read-out: Single agent IC50 (μM), mean ± STD
Description: as §1, §2, §3

CHL1 = test: Cell growth inhibition assay, CHL1 (melanoma); format: cell-based; conditions: Homo sapiens, CHL-1, 72 h, 3 days, read-out: Single agent IC50 (μM), mean ± STD
Description: as §1, §2, §3

[1] = system: five colorectal cancer cell lines; test: Cell growth inhibition assay, colorectal lines; format: cell-based; conditions: Homo sapiens; span over the five colorectal cancer cell lines of Table 1; read-out: IC50 values, single agent
NCI-H747 = test: Cell growth inhibition assay, NCI-H747 (colorectal); format: cell-based; conditions: Homo sapiens, 72 h, 3 days, read-out: Single agent IC50 (μM), mean ± STD
Description: as §1, §2, §3

MDA-MB-453 = test: Cell growth inhibition assay, MDA-MB-453 (breast HER2+); format: cell-based; conditions: Homo sapiens, 72 h, 3 days, read-out: Single agent IC50 (μM), mean ± STD
Description: as §1, §2, §3

BT474 [2] = test: Cell apoptosis assay, DNA fragmentation, BT474; format: cell-based, Human; conditions: 48 hours, Roche Cell Death ELISA, combination at 2 to 1 molar ratio A:B (FIG. 2B)
Description: as §1
(§4) For investigation of the induction of apoptosis, cells were plated at 5,000 cells per well in a 96-well tissue culture plate and allowed to attach for approximately 24 hours. Forty-eight hours after treatment with compounds, levels of apoptosis were estimated using the Roche Cell Death ELISA kit (Cat. No. 11 774 425 001) following the instructions provided by the manufacturer.
(§5) FIG. 1. Dose response curves of cell growth inhibition in HCC1954, MDA-MB-175VII, CHL1 and BFTC-905.

KPL4 = test: Cell growth inhibition assay, KPL4 (breast HER2+); format: cell-based; conditions: Homo sapiens, KPL4, 72 h, 3 days, read-out: Single agent IC50 (μM), mean ± STD
Description: All cells were cultured for a minimum of 72 hours prior to cell plating. […] Cells were incubated in the presence of compounds for 3 days.
Cell growth was calculated relative to vehicle (DMSO) treated control wells.
In general, a CI value <0.9, between 0.9 and 1.1, or >1.1 indicates synergy, additivity and antagonism, respectively. In general, the smaller the CI number, the greater is the strength of synergy.

JimT-1 = test: Cell growth inhibition assay, JimT-1 (breast HER2+, trastuzumab-resistant); format: cell-based, Human; conditions: for IC50: Homo sapiens, 72 h, JimT-1, 3 days, read-out: Single agent IC50 (μM), mean ± STD; for sensitivity to cell growth inhibition, in words: JIMT-1 HER2+ breast cancer line
Description: as §1, §2
(§6) Inhibition of cell growth was estimated after treatment with compound or a combination of compounds for three days and comparing the signal to cells treated with vehicle (DMSO). Cell growth was calculated relative to vehicle (DMSO) treated control wells. A concentration of the compound that inhibits 50% of control cell growth (IC50) was interpolated using nonlinear regression with the equation, y=(A+(B−A)/(1+(C/x)^D)))), where A is the minimum response (ymin), B is the maximum response (ymax), C is the inflection point of the curve (EC50) and D is the Hill coefficient. […]

SKMEL5 = test: Cell growth inhibition assay, SKMEL5 (melanoma); format: cell-based, Human; conditions: 3 days, read-out: Single agent IC50 (μM), mean ± STD
Description: as §1, §2, §6

BT474-J4 [3] = test: Cell growth inhibition assay, BT474-J4 (breast HER2+, acquired resistance to Compound A); format: cell-based; conditions: Homo sapiens, 72 h, 3 days, read-out: Single agent IC50 (μM), mean ± STD
Description: as §1, §2, §3

HPAF-11 = test: Cell growth inhibition assay, HPAF-11 (pancreatic); format: cell-based; conditions: Homo sapiens, 72 h, 3 days, read-out: Single agent IC50 (μM), mean ± STD
Description: as §1, §2, §3

NCI-H508 = test: Cell growth inhibition assay, NCI-H508 (colorectal); format: cell-based; conditions: Homo sapiens, 72 h, 3 days, read-out: Single agent IC50 (μM), mean ± STD
Description: as §1, §2, §3

[4] = system: three pancreatic cancer cell lines; test: Cell growth inhibition assay, pancreatic lines; format: cell-based, Human; conditions: HPAF-11, Capan-1 and SUIT2
Description: as §1, §2, §3

647V = test: Cell growth inhibition assay, 647V (bladder); format: cell-based; conditions: Homo sapiens, 72 h, 3 days, read-out: Single agent IC50 (μM), mean ± STD
Description: as §1, §2, §3

LS174T = test: Cell growth inhibition assay, LS174T (colorectal); format: cell-based; conditions: Homo sapiens, 72 h, 3 days, read-out: Single agent IC50 (μM), mean ± STD
Description: as §1, §2, §3

T84 = test: Cell growth inhibition assay, T84 (colorectal); format: cell-based; conditions: Homo sapiens, 72 h, 3 days, read-out: Single agent IC50 (μM), mean ± STD
Description: as §1, §2, §3

HCC2218 = test: Cell growth inhibition assay, HCC2218 (breast HER2+); format: cell-based; conditions: Homo sapiens, HCC2218, 72 h, 3 days, read-out: Single agent IC50 (μM), mean ± STD
Description: as §1, §2, §3

BT474-J4 [5] = test: Cell apoptosis assay, DNA fragmentation, BT474-J4; format: cell-based, Human; conditions: 48 hours, Roche Cell Death ELISA, combination at 2 to 1 molar ratio A:B (FIG. 2B)
Description: as §1, §4, §5

AU565 = test: Cell growth inhibition assay, AU565 (breast HER2+); format: cell-based; conditions: Homo sapiens, AU565, 72 h, 3 days, read-out: Single agent IC50 (μM), mean ± STD
Description: as §1, §2, §3

HCC1419 = test: Cell growth inhibition assay, HCC1419 (breast HER2+); format: cell-based; conditions: Homo sapiens, HCC1419, 72 h, 3 days, read-out: Single agent IC50 (μM), mean ± STD
Description: as §1, §2, §3

BT474 [6] = test: Cell growth inhibition assay, BT474 (breast HER2+); format: cell-based; conditions: Homo sapiens, BT-474, 72 h, 3 days, read-out: Single agent IC50 (μM), mean ± STD
Description: as §1, §2, §3

[7] = system: HER2 positive (HER2+) breast tumor lines; test: Cell growth inhibition assay, text summary over HER2+ breast lines; format: cell-based; conditions: Homo sapiens; the HER2+ breast cancer lines listed in Table 1; read-out: IC50 as a single agent
Description: as §1, §2, §3

SKBR3 = test: Cell growth inhibition assay, SKBR3 (breast HER2+); format: cell-based; conditions: Homo sapiens, SK-BR-3, 72 h, 3 days, read-out: Single agent IC50 (μM), mean ± STD
Description: as §1, §2, §3

Row | IC50 (SW403) [µM] | IC50 (SW780) [µM] | IC50 (HCC1954) [µM] | IC50 (CHL1) [µM] | IC50 [1] [nM] | IC50 (NCI-H747) [µM] | IC50 (MDA-MB-453) [µM] | IC50 (SKMEL5; Homo sapiens, SK-MEL-5, 72 h) [µM] | IC50 (BT474-J4 [3]) [µM] | IC50 (NCI-H508) [µM] | Compound | IC50 (SUIT2) [µM] | IC50 (Capan-1) [µM] | IC50 (BFTC-905) [µM] | apoptosis induction determined by DNA fragmentation (BT474 [2]) | IC50 (KPL4) [µM] | IC50 (JimT-1) [µM] | sensitivity to cell growth inhibition, in words (JimT-1) | IC50 (HPAF-11) [µM] | sensitivity as single agents, in words [4] | IC50 (647V) [µM] | also measured
1 | 5.36 ± 1.55 | 4.11 ± 1.39 | 2.41 ± 1.57 | 0.138 ± 0.004 | 149 to 7180 | 2.64 ± 1.75 | 4.48 ± 1.47 | 4.74 ± 1.08 | > 10 | 0.149 ± 0.205 | CS(=O)(=O)CCNCc1ccc(-c2ccc3ncnc(Nc4ccc(OCc5cccc(F)c5)c(Cl)c4)c3c2)o1 [Compound A, N-{3-Chloro-4-[(3-fluorobenzyl)oxy]phenyl}-6-[5-({[2-(methanesulphonyl)ethyl]amino}methyl)-2-furyl]-4-quinazolinamine] | > 10 | > 10 | 4.28 ± 0.073 | induced apoptosis | < 1 | > 10 | resistant | 10.5 ± 2.77 | resistant | > 10 | IC50 (A375 S2): > 10 µM; IC50 (MDAMB175VII): 0.146 ± 0.035 µM; IC50 (SUM149): 4.73 ± 1.37 µM; IC50 (LS174T): 7.18 ± 3.93 µM; IC50 (T84): 4.28 ± 1.35 µM
2 | 0.005 ± 0.004 | 0.07 ± 0.042 | > 1 | 0.461 ± 0.382 | 3 to 99 | 0.003 ± 0.002 | > 1 | ≤ 0.003 | > 1 | 0.019 ± 0.005 | CC(=O)Nc1cccc(-n2c(=O)n(C3CC3)c(=O)c3c(Nc4ccc(I)cc4F)n(C)c(=O)c(C)c32)c1 [Compound B, N-{3-[3-cyclopropyl-5-(2-fluoro-4-iodo-phenylamino)-6,8-dimethyl-2,4,7-trioxo-3,4,6,7-tetrahydro-2H-pyrido[4,3-d]pyrimidin-1-yl]phenyl}acetamide] | 0.196 ± 0.269 | 0.086 ± 0.007 | 0.012 ± 0.003 | not active to induce apoptosis | > 1 | > 1 | resistant | 0.059 ± 0.03 | sensitive | > 1 | IC50 (HCC2218): > 1 µM; apoptosis induction determined by DNA fragmentation (BT474-J4 [5]): not active to induce apoptosis; IC50 (AU565): > 1 µM; IC50 (HCC1419): > 1 µM; IC50 (BT474 [6]): > 1 µM; IC50 (SKMEL5): 0.003 µM; IC50 [7]: > 1000 nM; IC50 (SKBR3): > 1 µM; IC50 (LS174T): 0.099 ± 0.053 µM; IC50 (T84): 0.075 ± 0.039 µM
